Experimental findings from patent US11306096B2, “4,6 dihydropyrrolo [3,4-C] pyrazole-5 (1H)-carbonitrile derivates for treating cancer” (MISSION THERAPEUTICS LIMITED, priority 2016, dated 2022) are described below.

pIC50: −log10 of the molar value.

The experiment concerns the target USP7 (Homo sapiens (Human), UniProt Q93009). The experiment is described as follows: USP7 Biochemical IC50 Assay. As to conditions: FLAG-USP7; enzyme and compound incubated 30 min at room temp; TAMRA labelled peptide-ubiquitin fluorescence polarisation substrate; read after 2 hr; read-out: IC50 range. The method, then:
The USP7 construct was PCR amplified and cloned into a pFLAG-CMV-6a vector (Sigma-Aldrich) with an N-terminal FLAG tag. HEK293T cells were transfected with FLAG-USP7 using TransIT-LT1 transfection reagent (Mirus) according to the manufacturer's instructions. Cells were harvested 40 hours after transfection. […] The resin was washed two times with low salt buffer plus protease inhibitors (complete mini, Roche) and phosphatase inhibitors (PhosSTOP mini, Roche) and one time with high salt buffer (20 mM Tris, pH 7.5, 500 mM NaCl, 0.5 mM EDTA, 5 mM beta-mercaptoethanol, protease inhibitors (complete mini, Roche) and phosphatase inhibitors (PhosSTOP mini, Roche). To elute the bound USP7, elution buffer (10 mM Tris, pH 7.5, 150 mM NaCl, 0.5 mM EDTA, 10% glycerol, 0.5% NP40, 5 mM beta-mercaptoethanol, 0.15 mg/ml 3×FLAG peptide (Sigma-Aldrich)) was added to the resin and incubated at 4° C. for 2.5 hours rotating. The resin was centrifuged at 4000 rpm for 30 seconds, and the supernatant containing purified FLAG-USP7 was removed and stored at −80° C.
USP7 Biochemical IC50 Assay
A typical 8-point dilution series would be 100, 30, 10, 3, 1, 0.3, 0.1, 0.03 μM final. […] Either 1 μl of 50% DMSO or diluted compound was added to the plate. USP7 was diluted in reaction buffer (20 mM Tris, pH 7.5, 100 mM NaCl, 0.05% Tween 20, 0.5 mg/ml BSA, 5 mM—beta mercaptoethanol) to the equivalent of 0.0025 μl/well and 10 μl of diluted USP7 was added to the compound. Enzyme and compound were incubated for 30 min at room temp. Reactions were initiated by the addition of 50 nM of TAMRA labelled peptide linked to ubiquitin via an iso-peptide bond as fluorescence polarisation substrate. Reactions were read immediately after addition of substrate and following a 2 hr incubation at room temperature. Readings were performed on a Pherastar Plus (BMG Labtech). λ Excitation 540 nm; λ Emission 590 nm.

USP7, sequence (Q93009 whole entry): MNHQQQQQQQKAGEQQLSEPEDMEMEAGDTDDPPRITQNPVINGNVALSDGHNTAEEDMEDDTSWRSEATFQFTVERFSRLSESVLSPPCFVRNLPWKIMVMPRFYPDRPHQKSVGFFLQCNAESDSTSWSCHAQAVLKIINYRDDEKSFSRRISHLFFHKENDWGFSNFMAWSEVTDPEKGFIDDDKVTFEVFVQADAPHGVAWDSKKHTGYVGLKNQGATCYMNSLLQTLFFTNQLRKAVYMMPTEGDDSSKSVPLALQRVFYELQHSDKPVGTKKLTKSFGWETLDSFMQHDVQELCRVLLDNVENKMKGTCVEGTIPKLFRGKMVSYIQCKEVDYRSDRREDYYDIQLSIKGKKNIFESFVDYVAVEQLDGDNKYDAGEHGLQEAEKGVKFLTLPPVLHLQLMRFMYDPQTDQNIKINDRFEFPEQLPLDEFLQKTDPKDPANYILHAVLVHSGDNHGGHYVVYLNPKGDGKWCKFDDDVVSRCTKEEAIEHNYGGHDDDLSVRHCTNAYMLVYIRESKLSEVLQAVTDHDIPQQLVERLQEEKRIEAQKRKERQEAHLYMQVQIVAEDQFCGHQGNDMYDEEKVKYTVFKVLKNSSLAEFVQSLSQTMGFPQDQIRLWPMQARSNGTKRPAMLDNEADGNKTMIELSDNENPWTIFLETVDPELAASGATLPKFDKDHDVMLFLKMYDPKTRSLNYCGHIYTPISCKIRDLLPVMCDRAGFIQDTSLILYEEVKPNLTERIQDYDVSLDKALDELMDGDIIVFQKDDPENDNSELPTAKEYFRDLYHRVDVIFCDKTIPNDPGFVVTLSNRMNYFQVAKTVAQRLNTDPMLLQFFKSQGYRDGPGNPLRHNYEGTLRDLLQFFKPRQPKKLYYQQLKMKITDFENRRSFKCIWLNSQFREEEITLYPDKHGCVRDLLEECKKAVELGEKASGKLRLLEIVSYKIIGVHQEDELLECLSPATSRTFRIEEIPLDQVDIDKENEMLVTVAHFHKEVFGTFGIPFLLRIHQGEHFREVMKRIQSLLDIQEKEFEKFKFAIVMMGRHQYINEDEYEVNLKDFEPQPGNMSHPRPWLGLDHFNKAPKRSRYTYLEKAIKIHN

`CN1CCN(c2ccc(-c3n[nH]c4c3CN(C#N)C4)c(F)c2)CC1` [Example 73, 3-(2-Fluoro-4-(4-methylpiperazin-1-yl)phenyl)-4,6-dihydro-pyrrolo[3,4-c]pyrazole-5(1H)-carbonitrile]: the pIC50 (usually the negative decadic logarithm of the IC50, by convention in mol/L) was > 5.00.

Consider `Cc1ccc(F)c(-c2n[nH]c3c2CN(C#N)C3)c1` [Example 27, 3-(2-Fluoro-5-methylphenyl)-4,6-dihydropyrrolo[3,4-c]pyrazole-5(1H)-carbonitrile], for which the pIC50 is > 5.00.

With `N#CN1Cc2cnn(-c3ccccc3)c2C1` [Example 2, 1-Phenyl-4,6-dihydropyrrolo[3,4-c]pyrazole-5(1H)-carbonitrile], the pIC50 is 4.52 to 5.00.

`Cc1ccc(C(=O)NCc2nn(-c3ccccc3)c3c2CN(C#N)C3)cc1` [Example 35, N-((5-Cyano-1-phenyl-1,4,5,6-tetrahydropyrrolo[3,4-c]pyrazol-3-yl)methyl)-4-methylbenzamide]: the pIC50 was > 5.00.

On to `N#CN1Cc2c(Nc3ccccn3)nn(-c3ccc(C(N)=O)cc3)c2C1` [Example 33, 4-(5-Cyano-3-(pyridin-2-ylamino)-5,6-dihydropyrrolo[3,4-c]pyrazol-1(4H)-yl)benzamide], for which the pIC50 was 4.52 to 5.00.

Turning to `COc1ccc(Cl)cc1-c1n[nH]c2c1CN(C#N)C2` [Example 77, 3-(5-Chloro-2-methoxyphenyl)-4,6-dihydropyrrolo[3,4-c]pyrazole-5(4H)-carbonitrile], the pIC50 is > 5.00.

Regarding `N#CN1Cc2[nH]nc(-c3ccnn3Cc3ccccc3)c2C1` [Example 53, 3-(1-Benzyl-1H-pyrazol-5-yl)-4,6-dihydropyrrolo[3,4-c]pyrazole-5(1H)-carbonitrile], the pIC50 is 4.52 to 5.00.

`Cc1cc(-c2n[nH]c3c2CN(C#N)C3)ccc1N1CCN(C)CC1` [Example 74, 3-(3-Methyl-4-(4-methylpiperazin-1-yl)phenyl)-4,6-dihydro-pyrrolo[3,4-c]pyrazole-5(1H)-carbonitrile]: the pIC50 is > 5.00.

For `CC(C)Oc1ccc(F)cc1-c1n[nH]c2c1CN(C#N)C2` [Example 48, 3-(5-Fluoro-2-isopropoxyphenyl)-4,6-dihydropyrrolo[3,4-c]pyrazole-5(1H)-carbonitrile], the pIC50 is > 5.00.

Consider `N#CN1Cc2[nH]nc(-c3ccc(C(=O)NCc4ccccc4)cc3)c2C1` [Example 49, N-Benzyl-4-(5-cyano-1,4,5,6-tetrahydropyrrolo[3,4-c]pyrazol-3-yl)benzamide], for which the pIC50 is > 5.00.

Regarding `COc1cc(-n2cccn2)ccc1-c1n[nH]c2c1CN(C#N)C2` [Example 70, 3-(2-Methoxy-4-(1H-pyrazol-1-yl)phenyl)-4,6-dihydropyrrolo[3,4-c]pyrazole-5(4H)-carbonitrile], the pIC50 is > 5.00.

Regarding `Cn1ncc2cc(-c3n[nH]c4c3CN(C#N)C4)ccc21` [Example 52, 3-(1-Methyl-1H-indazol-5-yl)-4,6-dihydropyrrolo[3,4-c]pyrazole-5(1H)-carbonitrile], the pIC50 is > 5.00.

Turning to `N#CN1Cc2c(-c3ccccc3)nn(Cc3ccccc3)c2C1` [Example 24, 1-Benzyl-3-phenyl-4,6-dihydropyrrolo[3,4-c]pyrazole-5(1H)-carbonitrile], the pIC50 is 4.52 to 5.00.

Turning to `N#CN1Cc2[nH]nc(-c3ccc(C(=O)NCc4ccccc4)cc3F)c2C1` [Example 79, N-Benzyl-4-(5-cyano-1,4,5,6-tetrahydropyrrolo[3,4-c]pyrazol-3-yl)-3-fluorobenzamide], the negative logarithm of the IC50 (pIC50) is > 5.00.

Take `N#CN1Cc2cnn(-c3cn(-c4ccccc4)cn3)c2C1` [Example 9, 1-(1-Phenyl-1H-imidazol-4-yl)-4,6-dihydropyrrolo[3,4-c]pyrazole-5(1H)-carbonitrile]: the pIC50 was 4.52 to 5.00.

`N#CN1Cc2[nH]nc(-c3cccc(S(=O)(=O)NC4CC4)c3)c2C1` [Example 55, 3-(5-Cyano-1,4,5,6-tetrahydropyrrolo[3,4-c]pyrazol-3-yl)-N-cyclopropylbenzene-sulfonamide]: the pIC50 was > 5.00.

On to `CC(C)n1nc(-c2ccccc2)c2c1CN(C#N)C2` [Example 23, 1-Isopropyl-3-phenyl-4,6-dihydropyrrolo[3,4-c]pyrazole-5(1H)-carbonitrile], for which the pIC50 was > 5.00.

As to `N#CN1Cc2[nH]nc(CNC(=O)c3cn4cc(Cl)ccc4n3)c2C1` [Example 65, 6-Chloro-N-((5-cyano-1,4,5,6-tetrahydropyrrolo[3,4-c]pyrazol-3-yl)methyl)-imidazo[1,2-a]pyridine-2-carboxamide], the pIC50 was > 5.00.

On to `N#CN1Cc2[nH]nc(-c3ccc(N4CCOCC4)cc3)c2C1` [Example 72, 3-(4-Morpholinophenyl)-4,6-dihydropyrrolo[3,4-c]pyrazole-5(1H)-carbonitrile], for which the pIC50 is > 5.00.

As for `N#CN1Cc2cnn(-c3cc(C(N)=O)n[nH]3)c2C1` [Example 28, 5-(5-Cyano-5,6-dihydropyrrolo[3,4-c]pyrazol-1(4H)-yl)-1H-pyrazole-3-carboxamide], the pIC50 was 4.52 to 5.00.

For `N#CN1Cc2[nH]nc(-c3cc(OC(F)(F)F)ccc3Cl)c2C1` [Example 44, 3-(2-Chloro-5-(trifluoro-methoxy)phenyl)-4,6-dihydropyrrolo[3,4-c]pyrazole-5(1H)-carbonitrile], the pIC50 is > 5.00.

As for `Cc1nn(-c2ccc(C(N)=O)cc2)c2c1CN(C#N)C2` [Example 16, 4-(5-Cyano-3-methyl-5,6-dihydropyrrolo[3,4-c]pyrazol-1(4H)-yl)benzamide], the pIC50 is > 5.00.

For the compound `N#CN1Cc2[nH]nc(-c3ccccc3)c2C1` [Example 29, 3-Phenyl-4,6-dihydropyrrolo[3,4-c]pyrazole-5(1H)-carbonitrile], the negative logarithm of the IC50 (pIC50) was > 5.00.

Take `N#CN1Cc2[nH]nc(-c3cccc(NS(=O)(=O)C4CC4)c3)c2C1` [Example 56, N-(3-(5-Cyano-1,4,5,6-tetrahydropyrrolo[3,4-c]pyrazol-3-yl)phenyl)cyclo-propanesulfonamide]: the pIC50 is > 5.00.

In the case of `CC(C)Oc1ccc(-c2n[nH]c3c2CN(C#N)C3)cn1` [Example 50, 3-(6-Isopropoxypyridin-3-yl)-4,6-dihydropyrrolo[3,4-c]pyrazole-5(1H)-carbonitrile], the pIC50 is > 5.00.

For `CC(NC(=O)c1cccc(-n2ncc3c2CN(C#N)C3)c1)c1ccccc1` (stereo not drawn) [Example 12, 3-(5-Cyano-5,6-dihydropyrrolo[3,4-c]pyrazol-1(4H)-yl)-N-(1-phenylethyl)benzamide], the pIC50 is 4.52 to 5.00.

On to `Cn1nc(-c2ccccc2)c2c1CN(C#N)C2` [Example 21, 1-Methyl-3-phenyl-4,6-dihydropyrrolo[3,4-c]pyrazole-5(1H)-carbonitrile], for which the pIC50 is > 5.00.

Consider `N#CN1Cc2cnn(-c3cc(-c4ccccc4)n[nH]3)c2C1` [Example 20, 1-(3-Phenyl-1H-pyrazol-5-yl)-4,6-dihydropyrrolo[3,4-c]pyrazole-5(1H)-carbonitrile], for which the pIC50 is 4.52 to 5.00.

With `Cn1nc2c(c1Nc1cc3ccccc3cn1)CN(C#N)C2` [Example 30, 3-(Isoquinolin-3-ylamino)-2-methyl-2,6-dihydropyrrolo[3,4-c]pyrazole-5(4H)-carbonitrile], the pIC50 is > 5.00.

Take `Cn1ncc2cc(-n3ncc4c3CN(C#N)C4)ccc21` [Example 17, 1-(1-Methyl-1H-indazol-5-yl)-4,6-dihydropyrrolo[3,4-c]pyrazole-5(1H)-carbonitrile]: the pIC50 is > 5.00.

In the case of `COc1ccc(C(C)C)cc1-c1nn(C)c2c1CN(C#N)C2` [Example 62, 3-(5-Isopropyl-2-methoxyphenyl)-1-methyl-4,6-dihydropyrrolo[3,4-c]pyrazole-5(1H)-carbonitrile], the pIC50 is > 5.00.

Consider `N#CN1Cc2cnn(-c3cccc(NS(=O)(=O)C4CC4)c3)c2C1` [Example 78, N-(3-(5-Cyano-5,6-dihydropyrrolo[3,4-c]pyrazol-1(4H)-yl)phenyl) cyclopropanesulfonamide], for which the pIC50 is 4.52 to 5.00.

`CNC(=O)c1ccc(-c2n[nH]c3c2CN(C#N)C3)cn1` [Example 45, 5-(5-Cyano-1,4,5,6-tetrahydropyrrolo[3,4-c]pyrazol-3-yl)-N-methylpicolinamide]: the pIC50 was > 5.00.

Take `CNC(=O)c1ccc(-n2ncc3c2CN(C#N)C3)cc1` [Example 15, 4-(5-Cyano-5,6-dihydropyrrolo[3,4-c]pyrazol-1(4H)-yl)-N-methylbenzamide]: the pIC50 is 4.52 to 5.00.

With `CN1CCN(c2cccc(-c3n[nH]c4c3CN(C#N)C4)c2)CC1` [Example 71, 3-(3-(4-Methylpiperazin-1-yl)phenyl)-4,6-dihydropyrrolo[3,4-c]pyrazole-5(1H)-carbonitrile], the pIC50 was > 5.00.

Turning to `CN1CCN(c2ccc(-c3n[nH]c4c3CN(C#N)C4)cn2)CC1` [Example 69, 3-(6-(4-Methylpiperazin-1-yl)pyridin-3-yl)-4,6-dihydropyrrolo[3,4-c]pyrazole-5(1H)-carbonitrile], the pIC50 is > 5.00.
